Tests used:
human androgen receptor = molecular target: T1, human androgen receptor (Homo sapiens, UniProt P10275); assay: Yeast Antiandrogen Screen (YAAS), reporter gene assay; type: cell-based; conditions: coincubated with 2.5 nM testosterone; for IC50: authentic standards 300 nM to 1 mM in ethanol, 24 h, three experiments, four-parameter logistic function, read-out: IC50, antiandrogenic in the YAAS
T1 construct: expressed in transfected cells
T1 sequence (P10275 1-920): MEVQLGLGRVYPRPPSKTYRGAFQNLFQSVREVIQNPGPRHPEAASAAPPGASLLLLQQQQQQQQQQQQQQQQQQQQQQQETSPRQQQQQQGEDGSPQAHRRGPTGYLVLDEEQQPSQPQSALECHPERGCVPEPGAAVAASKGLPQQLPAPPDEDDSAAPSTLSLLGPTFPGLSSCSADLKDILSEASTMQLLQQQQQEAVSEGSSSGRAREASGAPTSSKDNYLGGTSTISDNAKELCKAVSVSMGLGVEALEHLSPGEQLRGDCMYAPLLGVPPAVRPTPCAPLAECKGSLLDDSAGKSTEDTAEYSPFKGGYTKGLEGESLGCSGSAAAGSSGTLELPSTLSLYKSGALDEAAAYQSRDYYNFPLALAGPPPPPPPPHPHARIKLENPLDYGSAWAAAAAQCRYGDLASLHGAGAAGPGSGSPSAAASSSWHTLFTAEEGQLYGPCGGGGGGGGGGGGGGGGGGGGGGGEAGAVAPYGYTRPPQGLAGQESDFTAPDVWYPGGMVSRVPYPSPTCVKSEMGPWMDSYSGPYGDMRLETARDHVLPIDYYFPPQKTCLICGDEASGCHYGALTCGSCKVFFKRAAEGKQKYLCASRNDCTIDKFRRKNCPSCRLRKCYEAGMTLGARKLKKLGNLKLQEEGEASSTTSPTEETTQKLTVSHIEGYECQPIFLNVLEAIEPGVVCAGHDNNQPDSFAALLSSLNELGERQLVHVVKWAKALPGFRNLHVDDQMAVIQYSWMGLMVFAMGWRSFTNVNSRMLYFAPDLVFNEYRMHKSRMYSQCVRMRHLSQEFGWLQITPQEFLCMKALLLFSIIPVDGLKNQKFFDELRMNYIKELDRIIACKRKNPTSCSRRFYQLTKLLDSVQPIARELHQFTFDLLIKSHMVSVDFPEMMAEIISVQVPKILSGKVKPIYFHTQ
Protocol: (§1) The antiestrogenic and antiandrogenic activity of bottled water extracts was evaluated in reporter gene assays for human estrogen receptor alpha (Yeast Antiestrogen Screen, YAES) and human androgen receptor (Yeast Antiandrogen Screen, YAAS). To detect antagonists, Yeast Estrogen Screen and Yeast Androgen Screen were modified to analyze samples in the presence of the endogenous ligand of each receptor (17β-estradiol, testosterone). Receptor antagonists present in the sample cause a displacement of the endogenous ligand resulting in a decreased reporter gene signal.
(§2) The general assay procedures have been described previously, [24]. Briefly, SPE extracts were diluted 480 fold in assay medium and coincubated with 30 pM 17β-estradiol (YAES) or 2.5 nM testosterone (YAAS) dissolved in ethanol. Negative controls, solvent controls (ethanol and DMSO) with and without endogenous ligand, and positive controls (ligand coincubated with a known receptor antagonist, YAES: 80 µM hydroxytamoxifen, YAAS: 50 µM flutamide) were included in each experiment. The maximum solvent concentration was 0.4% v/v in all cases. Samples were analyzed in eight replicates, controls in 8–48 replicates. After 24 hours incubation at 30°C turbidity was read to assess cytotoxicity and β-galactosidase activity was determined. Samples from three extractions were tested in three independent YAES and YAAS experiments each.
(§3) Inhibition data is reported as means of three SPE extracts per sample analyzed in three experiments (with eight replicates each) resulting in a sample size of 63–72. The reported antagonistic activity corresponds to a sample volume equivalent to 3.75 mL bottled water.
Chemicals with best matching fragmentation and plausible structure (DEHM, DOM, DEHF, DOF) were purchased as authentic standards. Their antiestrogenic and antiandrogenic activity was evaluated in the bioassays (three experiments) as described above in concentrations ranging from 300 nM to 1 mM (in ethanol).

[1] = molecular target: T2, human estrogen receptor alpha (Homo sapiens, UniProt P03372); assay: Yeast Antiestrogen Screen (YAES), reporter gene assay; type: cell-based; conditions: coincubated with 30 pM 17β-estradiol; for IC50: authentic standards 300 nM to 1 mM in ethanol, 24 h, three experiments, four-parameter logistic function, read-out: IC50, antiestrogenic in the YAES
T2 construct: expressed in transfected cells
T2 sequence (P03372 1-595): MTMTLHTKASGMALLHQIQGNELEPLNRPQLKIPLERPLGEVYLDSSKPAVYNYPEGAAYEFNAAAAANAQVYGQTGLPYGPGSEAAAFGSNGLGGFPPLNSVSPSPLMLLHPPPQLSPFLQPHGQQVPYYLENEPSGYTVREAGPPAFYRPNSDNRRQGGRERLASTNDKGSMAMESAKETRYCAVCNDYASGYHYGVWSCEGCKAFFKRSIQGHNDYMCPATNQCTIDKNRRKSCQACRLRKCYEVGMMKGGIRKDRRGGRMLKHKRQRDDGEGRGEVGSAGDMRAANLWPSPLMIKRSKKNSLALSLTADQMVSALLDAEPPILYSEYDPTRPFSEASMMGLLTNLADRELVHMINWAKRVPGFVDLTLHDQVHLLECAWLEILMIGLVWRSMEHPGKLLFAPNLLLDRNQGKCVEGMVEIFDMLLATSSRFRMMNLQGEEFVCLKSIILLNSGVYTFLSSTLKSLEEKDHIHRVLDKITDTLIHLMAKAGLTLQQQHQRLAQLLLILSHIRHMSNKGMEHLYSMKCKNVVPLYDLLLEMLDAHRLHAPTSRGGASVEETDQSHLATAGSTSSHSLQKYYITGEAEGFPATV
Protocol: as §1, §2, §3
Their antiestrogenic and antiandrogenic activity was evaluated in the bioassays (three experiments) as described above in concentrations ranging from 300 nM to 1 mM (in ethanol).

CCCCC(CC)COC(=O)/C=C/C(=O)OCC(CC)CCCC (stereo not shown) [DEHF, 2-Butenedioic acid (2E)-, 1,4-bis(2-ethylhexyl) ester]
antiandrogenic activity in the YAAS (result in words) (human androgen receptor): inactive

CCCCC(CC)COC(=O)/C=C\C(=O)OCC(CC)CCCC (stereo not shown) [DEHM, 2-Butenedioic acid (2Z)-, 1,4-bis(2-ethylhexyl) ester]
antiandrogenic activity in the YAAS (result in words) (human androgen receptor): inactive

CCCCCCCCOC(=O)/C=C/C(=O)OCCCCCCCC [DOF, 2-Butenedioic acid (2E)-, 1,4-dioctyl ester]
IC50 [1]: 35.4 µM | antiestrogenic activity in the YAES (result in words) [1]: partially | IC50 (human androgen receptor): 15.8 µM | antiandrogenic activity in the YAAS (result in words) (human androgen receptor): partially

CCCCCCCCOC(=O)/C=C\C(=O)OCCCCCCCC [DOM, 2-Butenedioic acid (2Z)-, 1,4-dioctyl ester]
IC50 [1]: 107 µM | antiestrogenic activity in the YAES (result in words) [1]: at high concentrations | IC50 (human androgen receptor): 245 µM | antiandrogenic activity in the YAAS (result in words) (human androgen receptor): at high concentrations

Source: publication PMC3756062, “Identification of Putative Steroid Receptor Antagonists in Bottled Water: Combining Bioassays and High-Resolution Mass Spectrometry” (PLoS ONE, 2013)
